Experimental data: patent publication US6737421B1, “Cyclo-alkyl substituted benzimidazoles and their use as PARP inhibitors” (Abbott GmbH & Co. KG, priority 1999, dated 2004)

Experiments:
[1] = literature report; cited from earlier work
[2] = Determination of the solubility in water; assay type: physicochemical; settings: adjusted to pH 5-6 with sodium acetate solution, final dimethyl sulfoxide ≦1% if not a water-soluble salt
Description: EXAMPLE B Determination of the Solubility in Water […] If the measured substance is not in the form of a water-soluble salt, it was dissolved in the minimum amount of dimethyl sulfoxide and then diluted with water (final dimethyl sulfoxide concentration ≦1%), after which the pH was again adjusted.

## NC(=O)c1cccc(N)c1 [3-aminobenzamide]
[1]
  effect in a model of circulatory failure: protective effects

## COc1ccc(-c2nc3cccc(C(N)=O)c3[nH]2)cc1 [NU 1076]
[2]
  solubility in water: < 0.01%
